Where two headings read alike, the source gives them in different places.
Assays:
SbSOMT [1] = molecular target: T1, SbSOMT (Sorghum bicolor, UniProt A0A1B6PFV1); experiment: In vitro OMT enzyme assay, recombinant SbSOMT; assay type: biochemical
Protocol: (§1) To screen for OMT activities, purified stilbene products of enzyme assays were separated by a Synergi C18 column (Synergi 4μ Fusion RP 80 Å, 50×2 mm, Phenomenex, USA) under a flow rate of 0.5 ml min-1 over a 6 min linear gradient of 10%-90% B (described below). […] Meanwhile, purified phenylpropanoid products of enzyme assays were separated on the same column connected to a HP1100 series HPLC system (Agilent Technologies, USA) linked to an AP3200-QTRAP mass spectrometer (AB Sciex, China) operating under the multiple-reaction-monitoring (MRM) mode. To quantify these products, assay products were separated on a Kinetex C18 column (Kinetex 2.6 μm C18 100 Å, 100×2.1 mm, Phenomenex, USA) connected to a HP1100 series HPLC system (Agilent Technologies, USA) linked to an AP3200-QTRAP mass spectrometer (AB Sciex, China) operating under the multiple-reaction-monitoring (MRM) mode. A linear gradient of 10%-90% B under a flow rate of 0.3 ml min-1 over 6 min was used to further enhance sensitivity. Total metabolites from all plant tissues were separated by the same Kinetex C18 column connected to the X500R QTOF-HRMS system. A linear gradient under a flow rate of 0.3 ml min-1 over a 20 min linear gradient of 10%-90% B was used.
(§2) Reaction products were extracted twice with ethyl acetate. […] All reactions were done in triplicates.

SbCOMT [2] = molecular target: T2, SbCOMT (Sorghum bicolor, UniProt Q84X55); experiment: In vitro OMT enzyme assay, recombinant SbCOMT; assay type: biochemical
Protocol: as §1, §2

SsCOMT [3] = experiment: In vitro OMT enzyme assay, recombinant SsCOMT; assay type: biochemical, Saccharum spontaneum; conditions: two-hour incubation with 100 μM substrate
Protocol: as §1, §2

SbCOMT [4] = molecular target: T2, SbCOMT; experiment: Isothermal titration calorimetry (ITC), SbCOMT wild type; assay type: binding
Protocol: (§3) Isothermal titration calorimetry (ITC) assays were conducted with MicroCal iTC200 (Malvern Panalytical, UK). […] Both cell sample and titrant were equilibrated to ITC buffer consisting of 100 mM HEPES pH 7.9 with 2.5% (v/v) PEG 400. For ITC assays involving pterostilbene, PEG 400 concentration was increased to 5% (v/v). Each run incorporated an initial delay of 60 s prior to the first injection (0.5 μl) and spaced 150 s between the subsequent 19 injections (2.0 μl) at 25° C. During the runs, the cell was continuously stirred at 750 rpm by flat paddle. Results were analysed based on the 2nd to 20th injections using the Origin (MicroCal Software, USA) and PEAQ-ITC software (Malvern Panalytical, UK).

SbSOMT [5] = molecular target: T1, SbSOMT; experiment: Isothermal titration calorimetry (ITC), SbSOMT wild type; assay type: binding
Protocol: as §3

SbCOMT [6] = molecular target: T2, SbCOMT; experiment: Enzyme kinetics of SbCOMT; assay type: biochemical; conditions: pinostilbene as substrate
Description: as §2

SsCOMT [7] = experiment: Isothermal titration calorimetry (ITC), SsCOMT wild type; assay type: binding, Saccharum spontaneum; conditions: 25° C., SsCOMT WT, mean ± standard error from curve fitting
Protocol: as §3

SbSOMT [8] = molecular target: T1, SbSOMT; experiment: Enzyme kinetics of SbSOMT; assay type: biochemical; conditions: pinostilbene as substrate
Description: as §2

SbSOMT E310A = SbSOMT E310A (Sorghum bicolor, UniProt A0A1B6PFV1, E310A); experiment: biochemical; assay type: binding; conditions: for Stoichiometry, N: ITC
Protocol: (§4) Desired mutations of SbSOMT were introduced into its construct using specific primers (Table 11). Expression constructs were transformed into Rosetta™ (DE3) competent Escherichia coli cells (Novagen, Germany). Protein expression was induced with 0.1 mM Isopropyl-β-thiogalactopyranoside (IPTG) overnight at 16° C. E. coli cells were harvested, resuspended in lysis buffer (20 mM Tris buffer pH 7.9, 300 mM NaCl, 2.5 mM β-mercaptoethanol), and lysed by sonication. Crude proteins were loaded onto a HisTrap HP column (Cytiva, USA) connected to a AKTA pure chromatography system (Cytiva, USA). Column was washed with 15 column volumes of lysis buffer with 50 mM imidazole. Proteins were eluted over a gradient of 50-500 mM imidazole. Eluate fractions with the target OMT were pooled, digested with TEV protease, and simultaneously dialyzed against a low salt buffer (20 mM Tris pH 7.9, 50 mM NaCl, 2.5 mM β-mercaptoethanol) overnight at 4° C. The dialyzed sample was filtered and flowed through HisTrap to remove His-tagged components. The flowthrough was then loaded to HiTrap Q FF columns (Cytiva, USA) over a gradient of 50-1000 mM NaCl. Polishing was achieved via size-exclusion chromatography using the storage buffer (100 mM HEPES pH 7.9, 100 mM NaCl) as mobile phase. SsSTS was purified under the same conditions except that the pH was adjusted to 7.0 for all buffers. Proteins were concentrated by ultrafiltration and flash frozen for storage at −80° C.
as §3

SbSOMT F337N [9] = experiment: ITC, SbSOMT F337N mutant protein; assay type: binding, Sorghum bicolor
Protocol: as §4, with “Polishing was achieved via size-exclusion chromatography using the storage buffer (100 mM HEPES pH 7.9, 100 mM NaCl) as mobile phase. SsSTS was purified under the same conditions except that the pH was adjusted to 7.0 for all buffers. Proteins were concentrated by ultrafiltration and flash frozen for storage at −80° C.” left out
(§5) Isothermal titration calorimetry (ITC) assays were conducted with MicroCal iTC200 (Malvern Panalytical, UK). […] Results were analysed based on the 2nd to 20th injections using the Origin (MicroCal Software, USA) and PEAQ-ITC software (Malvern Panalytical, UK).

SbSOMT H282A = experiment: Catalytic assay, SbSOMT H282A mutant protein; assay type: biochemical, Sorghum bicolor; conditions: one-hour incubation
Description: (§6) Data are expressed as yields relative to that of wild-type SbSOMT protein (WT). […] Data are expressed as yields relative to that of wild-type SbSOMT protein (WT). Values refer to means±SD (n=3). Asterisks indicate significant differences between mutant protein and WT (Student's t-test, ***: p<0.001). Tricin was used as an internal standard for quantitation. […] Dots represent individual data points.
(§7) Desired mutations of SbSOMT were introduced into its construct using specific primers (Table 11). Expression constructs were transformed into Rosetta™ (DE3) competent Escherichia coli cells (Novagen, Germany). Protein expression was induced with 0.1 mM Isopropyl-β-thiogalactopyranoside (IPTG) overnight at 16° C. E. coli cells were harvested, resuspended in lysis buffer (20 mM Tris buffer pH 7.9, 300 mM NaCl, 2.5 mM β-mercaptoethanol), and lysed by sonication. […]
(§8) For initial screening of OMT activities, purified OMT enzymes (10 μg) were incubated in 100 mM HEPES buffer (pH 7.9), 200 μM S-adenosyl-L-methionine (SAM) and 100 μM of phenylpropanoid or stilbene substrates (final volume 200 μl) at 30° C. for 2 h. Enzyme kinetics were determined by incubating 1 μg protein with 100 mM HEPES buffer (pH 7.9), 300 μM SAM, and stilbene concentrations ranging from 5 to 200 μM at 30° C. for 5 min. […]

SbSOMT I144N/F337N [10] = experiment: Catalytic assay, SbSOMT I144N/F337N mutant protein; assay type: biochemical, Sorghum bicolor; conditions: resveratrol, one-hour incubation
Description: as §6, §7, §8

SbSOMT D283A [11] = molecular target: T3, SbSOMT D283A (Sorghum bicolor, UniProt A0A1B6PFV1, D283A); experiment: biochemical
Protocol: as §4, §3

SbSOMT H282N/D283A = SbSOMT H282N/D283A (Sorghum bicolor, UniProt A0A1B6PFV1, D283A/H282N); experiment: biochemical
Protocol: as §4, §3

SbSOMT E342A [12] = molecular target: T4, SbSOMT E342A (Sorghum bicolor, UniProt A0A1B6PFV1, E342A); experiment: biochemical
Protocol: as §4, §3

SbSOMT I144N = SbSOMT I144N (Sorghum bicolor, UniProt A0A1B6PFV1, I144N); experiment: biochemical
Protocol: as §4, §3

SbOMT4 = experiment: In vitro OMT enzyme assay, recombinant SbOMT4; assay type: biochemical, Sorghum bicolor
Protocol: as §1, §2

SbSOMT F337N [13] = experiment: Catalytic assay, SbSOMT F337N mutant protein; assay type: biochemical, Sorghum bicolor; conditions: SbSOMT F337N vs WT, resveratrol, one-hour incubation
Description: as §6, §7, §8

SbSOMT D283A [14] = molecular target: T3, SbSOMT D283A; conditions: SbSOMT D283A incubated with resveratrol, one hour
Description: as §6, §7, §8

SbSOMT E342A [15] = molecular target: T4, SbSOMT E342A; conditions: SbSOMT E342A incubated with resveratrol, one hour
Description: as §6, §7, §8

SbSOMT I144N/F337N [16] = experiment: ITC, SbSOMT I144N/F337N mutant protein; assay type: binding, Sorghum bicolor
Protocol: as §4, with “Polishing was achieved via size-exclusion chromatography using the storage buffer (100 mM HEPES pH 7.9, 100 mM NaCl) as mobile phase. SsSTS was purified under the same conditions except that the pH was adjusted to 7.0 for all buffers. Proteins were concentrated by ultrafiltration and flash frozen for storage at −80° C.” left out
as §5

[17] = two-hour incubation with 100 μM substrate
[18] = ITC, 25° C., SbCOMT WT, mean ± standard error from curve fitting, read-out: Kd
[19] = 300 μM SAM, 30° C., 5 min, mean ± SD (n = 3)
[20] = two-hour incubation with 100 μM resveratrol

## COc1cc(/C=C/C(=O)O)cc(O)c1O [5-hydroxyferulic acid]
SbSOMT [1]; [17]
  O-methylation of hydroxycinnamic acids: failed to methylate
SbCOMT [2]; [17]
  O-methylation of hydroxycinnamic acids to ferulic acid / sinapic acid: efficiently converted
SsCOMT [3]
  formation of O-methylated product: generated

## Oc1cc(O)cc(/C=C/c2ccc(O)c(O)c2)c1 [Piceatannol, piceatannol]
SbCOMT [4]
  Kd: 1.26 µM
SbCOMT [2]; two-hour reaction with 100 μM piceatannol
  conversion of piceatannol into isorhapontigenin (3′-O-methylation in the B-ring): ca. 60%

## COc1cc(O)cc(/C=C/c2ccc(O)cc2)c1 [Pinostilbene, pinostilbene]
SbCOMT [4]; [18]
  Kd: 1.79 µM
SbSOMT [5]; ITC, 25° C., SbSOMT WT, mean ± standard error from curve fitting, read-out: Kd
  Kd: 2.86 µM
SbCOMT [6]
  Specific activity: 3.46 ± 0.27 nmol/min/mg
  kcat: 0.00233 ± 0.00017 s⁻¹
SbCOMT [6]; [19]
  Km: 3.14 ± 1.4 µM
SsCOMT [7]
  Kd: 5.57 ± 0.77 µM
SbSOMT [8]
  Specific activity: 290.04 ± 5.64 nmol/min/mg
  kcat: 0.1717 ± 0.00333 s⁻¹
SbSOMT [8]; [19]
  Km: 4.62 ± 0.46 µM
SbSOMT E310A; SbSOMT mutant E310A
  Stoichiometry, N: 0.59 ± 0.01
SbSOMT E310A; SbSOMT mutant E310A, ± SE, read-out: Kd
  Kd: 3.91 ± 0.33 µM

## COc1cc(/C=C/c2ccc(O)cc2)cc(OC)c1 [Pterostilbene, pterostilbene]
SbCOMT [4]; [18]
  Kd: 3.99 µM
SbSOMT E310A
  Kd: 6.04 ± 2.08 µM

## Oc1ccc(C=Cc2cc(O)cc(O)c2)cc1 [Resveratrol, resveratrol]
SbSOMT F337N [9]
  Kd: No binding
SbSOMT F337N [9]; listed as resveratrol
  Kd: undetectable binding affinities
SbSOMT H282A
  catalytic activity with resveratrol: catalytically defective
SbCOMT [4]
  Kd: 1.55 µM
SbSOMT I144N/F337N [10]
  SOMT activities: complete abolishment of SOMT activities
SbSOMT [5]
  Kd: 4.69 µM
SbSOMT [1]; [20]
  conversion of resveratrol into pterostilbene: about 60%
SbSOMT D283A [11]
  Kd: 1.31 µM
SbSOMT D283A [11]; SbSOMT mutant D283A, ITC
  Stoichiometry, N: 0.58 ± 0.01
SbSOMT H282N/D283A
  Kd: 32.9 µM
SbSOMT H282N/D283A; SbSOMT mutant H282N/D283A, ITC
  Stoichiometry, N: 0.61 ± 0.17
SbSOMT E342A [12]
  Kd: 11.1 ± 0.75 µM
SbSOMT E342A [12]; SbSOMT mutant E342A, ITC
  Stoichiometry, N: 0.75 ± 0.01
SbSOMT I144N
  Kd: 152 ± 31.1 µM
SbSOMT I144N; SbSOMT mutant I144N, N fixed at 0.6 to estimate the Kd, ± SE
  Kd: significantly weakened binding
SbOMT4
  SOMT activities with resveratrol as substrate: minimal SOMT activities
SbSOMT F337N [13]
  less pterostilbene produced compared to WT: 97.7%
  more pinostilbene accumulated compared to WT: 50.8%
SbCOMT [2]; [20]
  resveratrol 3,5-bis-O-methylation activities: poor resveratrol 3,5-bis-O-methylation activities
SsCOMT [7]
  Kd: 2.78 ± 0.33 µM
SbSOMT D283A [14]
  pterostilbene formation: failed to generate pterostilbene
SbSOMT E342A [15]
  pterostilbene formation: failed to generate pterostilbene
SbSOMT E310A
  Kd: 18.5 ± 2.58 µM
SbSOMT E310A; SbSOMT mutant E310A
  Stoichiometry, N: 0.36 ± 0.04
SsCOMT [3]
  formation of O-methylated product: only small amounts of pinostilbene were generated
SbSOMT I144N/F337N [16]
  Kd: No binding
SbSOMT I144N/F337N [16]; listed as resveratrol
  Kd: undetectable binding affinities
